Results reported in patent publication US11186566B2, “Modulator of cystic fibrosis transmembrane conductance regulator, pharmaceutical compositions, methods of treatment, and process for making the modulator” (Vertex Pharmaceuticals Incorporated, priority 2016, dated 2021).
Read-outs that look alike come from different tables or passages of the source.

Assays:
[1] = molecular target: human PXR (Homo sapiens (Human), UniProt O75469); experiment: PXR assay (PXR mediated CYP3A4 induction, DPX-2 cell line); assay type: cell-based; settings: DPX-2 cells, 48 hours, 0.1 to 60 μM
Sequence of human PXR (O75469 whole entry): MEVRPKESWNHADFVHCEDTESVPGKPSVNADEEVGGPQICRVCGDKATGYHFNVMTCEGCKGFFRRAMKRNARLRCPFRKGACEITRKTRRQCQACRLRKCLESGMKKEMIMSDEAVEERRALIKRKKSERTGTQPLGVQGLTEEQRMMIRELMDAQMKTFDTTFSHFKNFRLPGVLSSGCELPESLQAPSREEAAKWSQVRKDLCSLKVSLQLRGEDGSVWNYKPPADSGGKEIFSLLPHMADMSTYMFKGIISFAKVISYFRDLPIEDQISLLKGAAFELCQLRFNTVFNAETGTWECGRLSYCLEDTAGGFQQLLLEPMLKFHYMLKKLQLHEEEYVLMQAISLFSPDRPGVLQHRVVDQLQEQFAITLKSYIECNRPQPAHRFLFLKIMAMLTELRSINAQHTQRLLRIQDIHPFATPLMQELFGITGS
Procedure: 5D. Experimental Protocol for PXR Assay
The propensity for PXR mediated CYP3A4 induction is assessed using the DPX-2 cell line in vitro. This cell line, which has been licensed from Puracyp Inc. was derived from HepG2 cells and has been stably transfected with genes encoding human PXR as well as a modified luciferase reporter linked to the CYP3A4 promoter region and related distal and proximal enhancers.
The assay is run in 384 well format and each test article is administered in 11 doses ranging from 0.1 to 60 μM. On day 1, DPX-2 cells which have previously been expanded in-house and cryopreserved are thawed and seeded in tissue culture plates. The following day, media is changed and cells are cultured in media containing test article, vehicle control or the positive control compound, the clinically validated CYP3A4 inducer rifampicin. Cells are cultured in the presence of test article for 48 hours and then cell viability is assessed using fluorescence based assay (Cell Titer-Fluor, Promega) with an EnVision Plate Reader (PerkinElmer). Subsequently, CYP3A4 transactivation, which is proportional to luciferase activity, is measured by reading luminescense using the Promega One-Glo reagent system using the same plate reader.
Data processing within the Genedata software package allows reporting of max fold induction compared to vehicle control, an EC50 value for CYP3A4 inducers and an 11 point-dose response curve.

[2] = molecular target: F508del-CFTR (Homo sapiens (Human), UniProt P13569, DEL508-508); experiment: Membrane potential optical (fluorescent voltage sensing dye, FLIPR III) HTS assay for F508del-CFTR modulators; assay type: cell-based
Sequence of F508del-CFTR (P13569 other isoform, or with tags, fused parts or gaps del F508-F508): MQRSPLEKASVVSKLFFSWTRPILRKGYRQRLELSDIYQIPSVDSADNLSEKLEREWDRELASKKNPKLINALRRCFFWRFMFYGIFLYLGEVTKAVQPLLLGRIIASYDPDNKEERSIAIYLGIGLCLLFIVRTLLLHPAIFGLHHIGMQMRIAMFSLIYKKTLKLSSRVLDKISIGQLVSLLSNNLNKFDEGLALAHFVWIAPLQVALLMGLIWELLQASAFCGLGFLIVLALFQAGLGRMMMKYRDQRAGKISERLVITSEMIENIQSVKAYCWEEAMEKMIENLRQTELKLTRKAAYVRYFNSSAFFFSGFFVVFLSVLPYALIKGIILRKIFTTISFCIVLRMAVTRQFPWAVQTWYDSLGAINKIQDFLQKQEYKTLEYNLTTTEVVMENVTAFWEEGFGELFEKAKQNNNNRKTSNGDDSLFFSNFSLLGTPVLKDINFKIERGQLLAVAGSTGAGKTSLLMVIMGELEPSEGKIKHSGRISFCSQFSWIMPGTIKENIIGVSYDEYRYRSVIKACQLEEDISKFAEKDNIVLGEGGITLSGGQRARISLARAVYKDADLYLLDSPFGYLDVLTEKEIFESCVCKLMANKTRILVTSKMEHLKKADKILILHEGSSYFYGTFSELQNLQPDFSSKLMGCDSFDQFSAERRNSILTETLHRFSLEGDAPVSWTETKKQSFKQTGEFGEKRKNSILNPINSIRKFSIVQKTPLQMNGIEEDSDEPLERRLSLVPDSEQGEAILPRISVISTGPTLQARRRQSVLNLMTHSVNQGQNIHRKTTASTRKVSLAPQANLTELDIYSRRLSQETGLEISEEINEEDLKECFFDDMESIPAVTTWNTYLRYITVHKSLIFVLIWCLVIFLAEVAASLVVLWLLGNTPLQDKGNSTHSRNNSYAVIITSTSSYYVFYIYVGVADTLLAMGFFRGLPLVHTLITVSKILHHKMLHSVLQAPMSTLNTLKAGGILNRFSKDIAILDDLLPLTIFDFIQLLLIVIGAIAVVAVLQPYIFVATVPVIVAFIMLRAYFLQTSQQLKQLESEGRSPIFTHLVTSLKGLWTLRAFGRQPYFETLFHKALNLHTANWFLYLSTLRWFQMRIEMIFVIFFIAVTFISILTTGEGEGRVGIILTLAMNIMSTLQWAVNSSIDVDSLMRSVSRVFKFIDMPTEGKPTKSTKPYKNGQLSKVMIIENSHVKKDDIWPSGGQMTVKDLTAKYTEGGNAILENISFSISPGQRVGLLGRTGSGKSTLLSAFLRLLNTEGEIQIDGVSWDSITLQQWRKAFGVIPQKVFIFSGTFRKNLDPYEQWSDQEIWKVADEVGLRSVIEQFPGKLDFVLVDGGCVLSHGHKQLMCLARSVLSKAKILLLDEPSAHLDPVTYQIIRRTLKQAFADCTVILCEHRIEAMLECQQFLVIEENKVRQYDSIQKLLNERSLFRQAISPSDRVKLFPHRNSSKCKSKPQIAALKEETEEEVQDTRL
Excerpt: Membrane Potential Optical Methods for Assaying Properties of F508del-CFTR Modulators
The assay utilizes fluorescent voltage sensing dyes to measure changes in membrane potential using a fluorescent plate reader (e.g., FLIPR III, Molecular Devices, Inc.) as a readout for increase in functional F508del in NIH 3T3 cells.
5A-A1. Identification of F508Del-CFTR Modulators
To identify modulators of F508del, a fluorescence based HTS assay format was developed. This HTS assay utilizes fluorescent voltage sensing dyes to measure changes in membrane potential on the FLIPR III as a measurement for increase in gating (conductance) of F508del NIH 3T3 cells.
(in mM) NaCl 160, KCl 4.5, CaCl2 2, MgCl2 1, HEPES 10, pH 7.4 with NaOH, Glucose 10.
Chloride salts in Bath Solution #1 (above) are substituted with gluconate salts.
NIH3T3 mouse fibroblasts stably expressing F508del are used for optical measurements of membrane potential. The cells are maintained at 37° C. in 5% CO2 and 90% humidity in Dulbecco's modified Eagle's medium supplemented with 2 mM glutamine, 10% fetal bovine serum, 1×NEAA, β-ME, 1×pen/strep, and 25 mM HEPES in 175 cm^2 culture flasks. For all optical assays, the cells were seeded at 12,000 cells/well in 384-well matrigel-coated plates and cultured for 18-24 hrs at 37° C. for the potentiator assay. For the correction assays, the cells are cultured at 37° C. with and without compounds for 18-24 hours.

[3] = Rat IV and PO PK studies; assay type: in vivo, male Sprague-Dawley rats; settings: male, Sprague-Dawley, plasma; for bioavailability / AUC: 3 mg/kg, oral; for bioavailability: read-out: Rat po % F; for clearance: intravenous, 3.0 mg/kg, read-out: Rat iv CL
Procedure: 5C. Experimental Protocol for Rat IV and PO PK Studies
[…] […] Analyses of plasma and dose preparations were performed using LC/MS/MS.
Plasma concentration-time profiles of the tested compound in Sprague-Dawley rats at scheduled (nominal) sampling times were analyzed by noncompartmental pharmacokinetic methods using PK function within Watson LIMS software, Version 7.4.2 (Thermo Scientific Inc, Waltham, Mass.). AUC values were calculated using the linear trapezoidal rule.

[4] = F508del NIH 3T3 cells, assay 5A-A1, read-out: CFTRdF508 EC50
[5] = Table 9, read-out: CFTR dF508 EC50

Compound | PXR Max Induction (% of rifampicin) [1] | EC50 [2, 4] [nM] | EC50 [2, 5] [nM] | bioavailability [3] [%] | clearance [3] [mL/min/kg] | AUC [3] [ng·h/mL]
C[C@@H]1CN(c2nc(-n3ccc(COCC4(C(F)(F)F)CC4)n3)ccc2C(=O)NS(=O)(=O)c2ccccc2)C(C)(C)C1 [Comp. 37, N-(Benzenesulfonyl)-6-[3-[[1-(trifluoromethyl)cyclopropyl]methoxymethyl]pyrazol-1-yl]-2-[(4S)-2,2,4-trimethylpyrrolidin-1-yl]pyridine-3-carboxamide] | 8 % of rifampicin | < 100 | 70 |  |  | 
COc1ccc(S(=O)(=O)NC(=O)c2ccc(-n3ccc(OCC4(C(F)(F)F)CC4)n3)nc2N2C[C@@H](C)CC2(C)C)c(OC)c1 [Compound 13, N-(2,4-Dimethoxyphenyl)sulfonyl-6-[3-[[1-(trifluoromethyl)cyclopropyl]methoxy]pyrazol-1-yl]-2-[(4S)-2,2,4-trimethylpyrrolidin-1-yl]pyridine-3-carboxamide] | 2 % of rifampicin | 100 to 1000 | 110 |  |  | 
C[C@@H]1CN(c2nc(-n3ccc(OCC(C4CC4)C4CC4)n3)ccc2C(=O)NS(=O)(=O)c2ccccc2)C(C)(C)C1 [Comp. 41, N-(Benzenesulfonyl)-6-[3-(2,2-dicyclopropylethoxy)pyrazol-1-yl]-2-[(4S)-2,2,4-trimethylpyrrolidin-1-yl]pyridine-3-carboxamide] |  |  |  | 41 | 1.9 | 6400
C[C@@H]1CN(c2nc(-n3ccc(OCCC(C4CC4)C4CC4)n3)ccc2C(=O)NS(=O)(=O)c2ccccc2)C(C)(C)C1 [Comp. 42, N-(Benzenesulfonyl)-6-[3-(3,3-dicyclopropylpropoxy)pyrazol-1-yl]-2-[(4S)-2,2,4-trimethylpyrrolidin-1-yl]pyridine-3-carboxamide] |  | < 100 | 50 | 51 | 5.4 | 4400
C[C@@H]1CN(c2nc(-n3ccc(OCCC4(C(F)(F)F)CC4)n3)ccc2C(=O)NS(=O)(=O)c2cccc(F)c2)C(C)(C)C1 [Compound 5, N-(3-Fluorophenyl)sulfonyl-6-[3-[2-[1-(trifluoromethyl)cyclopropyl]ethoxy]pyrazol-1-yl]-2-[(4S)-2,2,4-trimethylpyrrolidin-1-yl]pyridine-3-carboxamide] |  | < 100 | 50 | 50 | 9.6 | 2700
C[C@@H]1CN(c2nc(-n3ccc(OCC4(C(F)(F)F)CCC4)n3)ccc2C(=O)NS(=O)(=O)c2ccccc2)C(C)(C)C1 [Compound 10, N-(Benzenesulfonyl)-6-[3-[[1-(trifluoromethyl)cyclobutyl]methoxy]pyrazol-1-yl]-2-[(4S)-2,2,4-trimethylpyrrolidin-1-yl]pyridine-3-carboxamide] |  | < 100 | 40 | 41 | 11.2 | 2200
C[C@@H]1CN(c2nc(-n3ccc(O[C@@H]4C[C@H]4C(F)(F)F)n3)ccc2C(=O)NS(=O)(=O)c2ccccc2)C(C)(C)C1 (racemic) [Compound 19, N-(Benzenesulfonyl)-6-[3-[(trans)-2-(trifluoromethyl)cyclopropoxy]pyrazol-1-yl]-2-[(4S)-2,2,4-trimethylpyrrolidin-1-yl]pyridine-3-carboxamide] |  | 100 to 1000 |  |  |  | 
C[C@@H]1CN(c2nc(-n3ccc(OCC4(C(F)(F)F)CC4)n3)ccc2C(=O)NS(=N)(=O)c2ccccc2)C(C)(C)C1 (single isomer, unassigned) [Compound 46] |  | < 100 |  |  |  | 

Continued, in another order:

PXR Max Induction (% of rifampicin) [1] | EC50 [2, 4] [nM] | EC50 [2, 5] [nM] | Compound | bioavailability [3] [%] | clearance [3] [mL/min/kg] | AUC [3] [ng·h/mL]
2 % of rifampicin | < 100 | 80 | C[C@@H]1CN(c2nc(-n3ccc(OCC4C[C@@H]5CC[C@@H]4C5)n3)ccc2C(=O)NS(=O)(=O)c2ccccc2)C(C)(C)C1 (stereo partly drawn) [Comp. 40, N-(Benzenesulfonyl)-6-[3-[[(1R,4R)-norbornan-2-yl]methoxy]pyrazol-1-yl]-2-[(4S)-2,2,4-trimethylpyrrolidin-1-yl]pyridine-3-carboxamide] |  |  | 
17 % of rifampicin | < 100 | 30 | Cc1cccc(S(=O)(=O)NC(=O)c2ccc(-n3ccc(OCC4(C(F)(F)F)CC4)n3)nc2N2C[C@@H](C)CC2(C)C)c1 [Comp. 28, N-(m-Tolylsulfonyl)-6-[3-[[1-(trifluoromethyl)cyclopropyl]methoxy]pyrazol-1-yl]-2-[(4S)-2,2,4-trimethylpyrrolidin-1-yl]pyridine-3-carboxamide] |  |  | 
2 % of rifampicin | < 100 | 80 | COc1ccc(S(=O)(=O)NC(=O)c2ccc(-n3ccc(OCC4(C(F)(F)F)CC4)n3)nc2N2C[C@@H](C)CC2(C)C)c(C)c1 [Comp. 57, N-(4-Methoxy-2-methyl-phenyl)sulfonyl-6-[3-[[1-(trifluoromethyl)cyclopropyl]methoxy]pyrazol-1-yl]-2-[(4S)-2,2,4-trimethylpyrrolidin-1-yl]pyridine-3-carboxamide] |  |  | 
0 % of rifampicin | < 100 | 80 | C[C@@H]1CN(c2nc(-n3ccc(OCC4C(C)(C)C4(C)C)n3)ccc2C(=O)NS(=O)(=O)c2ccc(O)cc2)C(C)(C)C1 [Comp. 33, N-(4-Hydroxyphenyl)sulfonyl-6-[3-[(2,2,3,3-tetramethylcyclopropyl)methoxy]pyrazol-1-yl]-2-[(4S)-2,2,4-trimethylpyrrolidin-1-yl]pyridine-3-carboxamide] |  |  | 
19 % of rifampicin | < 100 | 20 | COc1cccc(S(=O)(=O)NC(=O)c2ccc(-n3ccc(OCC4(C(F)(F)F)CC4)n3)nc2N2C[C@@H](C)CC2(C)C)c1 [Comp. 49, N-(3-methoxyphenyl)sulfonyl-6-[3-[[1-(trifluoromethyl)cyclopropyl]methoxy]pyrazol-1-yl]-2-[(4S)-2,2,4-trimethylpyrrolidin-1-yl]pyridine-3-carboxamide] |  |  | 
20 % of rifampicin |  | 400 | C[C@@H]1CN(c2nc(-n3ccc(OCC4CC4)n3)ccc2C(=O)NS(=O)(=O)c2cccnc2N)C(C)(C)C1 [Comp. D, reference compound] |  |  | 
3 % of rifampicin |  |  | C[C@@H]1CN(c2nc(-n3ccc(OCC(C)(C)C)n3)ccc2C(=O)NS(=O)(=O)c2ccc[nH]c2=O)C(C)(C)C1 [Comp. C, reference compound] |  |  | 
10 % of rifampicin |  |  | C[C@@H]1CN(c2nc(-n3ccc(OCC4CCC4)n3)ccc2C(=O)NS(=O)(=O)c2cccnc2N)C(C)(C)C1 [Comp. E, reference compound] |  |  | 
 | < 100 |  | C[C@@H]1CN(c2nc(-n3ccc(OCC4(C(F)(F)F)CC4)n3)ccc2C(=O)NS(=O)(=O)c2ccc(F)cc2)C(C)(C)C1 [Compound 52, N-(4-fluorophenyl)sulfonyl-6-[3-[[1-(trifluoromethyl)cyclopropyl]methoxy]pyrazol-1-yl]-2-[(4S)-2,2,4-trimethylpyrrolidin-1-yl]pyridine-3-carboxamide] |  |  | 
 | < 100 |  | C[C@@H]1CN(c2nc(-n3ccc(OCC4(C(F)(F)F)CC4)n3)ccc2C(=O)NS(=O)(=O)c2cccc(O)c2)C(C)(C)C1 [Compound 21, N-(3-Hydroxyphenyl)sulfonyl-6-[3-[[1-(trifluoromethyl)cyclopropyl]methoxy]pyrazol-1-yl]-2-[(4S)-2,2,4-trimethylpyrrolidin-1-yl]pyridine-3-carboxamide] |  |  | 
 | < 100 |  | COc1ccc(S(=O)(=O)NC(=O)c2ccc(-n3ccc(OCC4(C(F)(F)F)CC4)n3)nc2N2C[C@@H](C)CC2(C)C)cc1 [Compound 54, N-(4-methoxyphenyl)sulfonyl-6-[3-[[l-(trifluoromethyl)cyclopropyl]methoxy]pyrazol-1-yl]-2-[(4S)-2,2,4-trimethylpyrrolidin-1-yl]pyridine-3-carboxamide] |  |  | 
